# System: macrophages alvéolaires de rats Kyoto
# Experiment: Activation of alveolar macrophages (cytostatic/cytotoxic activity towards tumour target cells, tritiated thymidine incorporation)
# Assay type: cell-based, rat
# Details: mean of 3 measurements
# Description: Ce test met en évidence le phénomène d'activation des macrophages par une mesure de leur activité cytostatique ou cytotoxique envers des cellules de lignée tumorale.
# Le test de mesure de l'activation des macrophages consiste à traiter une culture de macrophages alvéolaires ou péritonéaux de rat ou de souris ou de monocytes humaines par des doses des polysaccharides de l'invention variant entre 0,001 et 50 µg/ml. Il est réalisé de la manière suivante :
# 10⁵ macrophages de souris de souche Balb c, Swiss, C57/B16 ou DBA/2 ou de rat de souche Kyoto ou Wistar sont placés dans une plaque de microtitration dans du milieu de culture complété ou non par du sérum artificiel et de 1 à 10 µg/ml de polymyxine.
# On ajoute les polysaccharides de l'invention ou le tampon correspondant sans polysaccharides comme contrôle négatif. Les cellules sont incubées 24 heures à 37°C. On élimine ensuite le surnageant et lave les cellules avec du milieu de culture.
# On ajoute alors les cellules cibles tumorales L1210 ou P815 dans du milieu complet. Le rapport macrophages/cellules cibles est de 10. On incube alors la culture durant 24 heures à 37°C. Puis on ajoute 1 - 2 x 10⁴Bq de thymidine tritiée par puits. Les cellules sont récupérées après 4 heures d'incubation à 37°C sur un filtre en fibre de verre. Après séchage des filtres, la radioactivité est mesurée en présence d'un mélange scintillant.
# Les résultats correspondent à une moyenne de 3 mesures. Le pourcentage d'activation est exprimé : [formula] R : radioactivité incorporée par les cellules tumorales cultivées en présence de macrophages de référence. S : radioactivité incorporée par les cellules tumorales cultivées en présence de macrophages stimulés.
compound,measurement,setting,value
"CC(=O)N[C@H]1C(O)O[C@H](CO)[C@@H](O)[C@@H]1O[C@H](C)C(=O)N[C@@H](C)C(=O)N[C@H](CCC(=O)O)C(N)=O (mixture of isomers) [Muramyl dipeptide (MDP), Muramyl dipeptide]",% d'activation des macrophages alvéolaires de rats Kyoto.,"dose 0,01 µg/ml",28%
same,% d'activation des macrophages alvéolaires de rats Kyoto.,dose 1 µg/ml,90%
same,% d'activation des macrophages alvéolaires de rats Kyoto.,dose 10 µg/ml,92%

# — patent EP0308279A1, “Water-soluble polysaccharides, process for obtaining them, their use as medicaments and a preparation containing them” (LIPHA, LYONNAISE INDUSTRIELLE PHARMACEUTIQUE, priority 1987, dated 1989)
